Test results from paper PMC7466821 (Investigational new drugs, 2017).
Where “and” joins values, the source holds several entries; their conditions need not be identical. Equal entries are not always repeated.

Key:
[1] = test system: leukemia and lung cancer cell lines; conditions: cited from earlier work
[2] = test system: patients with locally advanced or metastatic SCLC, ovarian and cervical cancers; conditions: in vivo
[3] = test system: patients with locally advanced or metastatic SCLC, ovarian cancer or cervical cancer; assay: Phase Ib Part 1: DLT evaluation and RP2D determination; type: in vivo, human; conditions: IV over 30 min days 1, 8, 15, 22 every 28 days; topotecan 4 mg/m^2 days 1, 8, 15
[4] = in vivo
[5] = ME-344 plasma pharmacokinetics, Part 1 cycle 1, noncompartmental; conditions: ME-344 10 mg/kg IV over 30 min with topotecan, 13 patients, arithmetic mean
[6] = test system: leukemia xenograft models; conditions: cited from earlier work
[7] = test system: patients with advanced solid tumors; conditions: cited from earlier work
patients = conditions: topotecan monotherapy; cited from earlier work

SMILES	cytotoxicity in vitro [1]	patients with SAE related to ME-344 (grade 3 diarrhea) [2] [patient]	neurotoxicity ([2]; iv, 10 mg/kg)	recommended phase II dose (RP2D) of ME-344 in combination with topotecan [3] [mg/kg]	end-of-infusion concentration on Day 15 lower than on Day 1 [4]	t1/2 (terminal half-life) [5]	anti-tumor activity [6]	doses at which DLT (grade 3 or higher peripheral neuropathy) was observed ([7]; IV weekly)	recommended phase II dose (RP2D), single agent ([7]; IV weekly) [mg/kg]	duration of prolonged stable disease [7]	patients with prolonged stable disease [7] [patients]	duration of partial response ([7]; single patient with SCLC) [weeks]	grade 3/4 hematologic toxicity rate (patients) [%]	SAEs related to topotecan in the additional patients ([2]; human) [SAEs]	additional patients with SAEs related to topotecan ([2]; human) [patients]
Cc1c(O)ccc2c1OC[C@@H](c1ccc(O)cc1)[C@H]2c1ccc(O)cc1 [ME-344]	cytotoxic	1	neurotoxicity was not observed	10	approximately 27%	5.3 h and 5.301 h	demonstrates anti-tumor activity	15 to 20 mg/kg and > 10 mg/kg	10	31–52 weeks	5	52	–	–	–
CC[C@@]1(O)C(=O)OCc2c1cc1n(c2=O)Cc2cc3c(CN(C)C)c(O)ccc3nc2-1 [topotecan, reference compound]	–	–	–	–	–	–	–	–	–	–	–	–	16.7	6	5
